The target of experiment [1] is T1, recombinant human-5HT1A receptors (Homo sapiens, UniProt P08908).
T1 construct: expressed in transfected cells; host or cells: 3T3 cells of mice (membranes)
T1 sequence (P08908 1-422): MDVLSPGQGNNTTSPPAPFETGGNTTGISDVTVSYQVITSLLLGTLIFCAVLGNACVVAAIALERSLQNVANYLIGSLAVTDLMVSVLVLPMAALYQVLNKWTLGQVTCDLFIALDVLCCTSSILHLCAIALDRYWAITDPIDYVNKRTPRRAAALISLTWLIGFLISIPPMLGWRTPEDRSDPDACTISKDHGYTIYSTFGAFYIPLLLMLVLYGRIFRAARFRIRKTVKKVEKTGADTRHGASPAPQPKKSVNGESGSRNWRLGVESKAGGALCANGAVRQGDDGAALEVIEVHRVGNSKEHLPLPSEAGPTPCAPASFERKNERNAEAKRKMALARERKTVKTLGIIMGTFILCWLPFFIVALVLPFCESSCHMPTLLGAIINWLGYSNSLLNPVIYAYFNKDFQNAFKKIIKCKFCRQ
In words: Displacement assay with [3H]-5-HT (1 nM) on recombinant human 5HT1A receptors expressed in 3T3 cells of mice (test method a). Format: binding. The procedure: (§1) The binding of compounds of formula I in accordance with the invention to serotonin receptors was determined in vitro by standard methods. The compounds were investigated in accordance with the assays given hereinafter:
[L] is the concentration of ligand and the KD value is the dissociation constant of the ligand.

A further experiment addresses 5HT2A receptor (Homo sapiens, UniProt P28223). The experiment is described as follows: [3H]-DOB binding assay, 5HT2A receptor (test method c). The procedure: as §1
c) For the binding to the 5HT2A receptor in accordance with the [3H]-DOB binding assay according to the method of T. Branchek et al., Molecular Pharmacology 38, 604-609 (1990).
(§2) The pki values (pki =-log10 Ki) of the test substances are given. The ki value is defined by the following formula: [formula] in which the IC50 values are those concentrations of test compounds in nmol by which 50% of the receptor-bound ligands are displaced. [L] is the concentration of ligand and the KD value is the dissociation constant of the ligand.

Experiment [2] has as its target 5HT2C receptor. The experiment is described as follows: [3H]-5-HT binding assay, 5HT2C receptor (test method b). Conditions: radioligand [3H]-5-HT, pki = -log10 Ki. The procedure: as §1
b) For the binding to the 5HT2C receptor in accordance with the [3H]-5-HT binding assay according to the method of S.J Peroutka et al., Brain Research 584, 191-196 (1992).
as §2

Experiment [3] deals with T2, 5HT2C receptor (Rattus norvegicus, UniProt P08909).
T2 construct: from tissue; host or cells: living rats (in vivo, s.c. dosing)
T2 sequence (P08909 33-460): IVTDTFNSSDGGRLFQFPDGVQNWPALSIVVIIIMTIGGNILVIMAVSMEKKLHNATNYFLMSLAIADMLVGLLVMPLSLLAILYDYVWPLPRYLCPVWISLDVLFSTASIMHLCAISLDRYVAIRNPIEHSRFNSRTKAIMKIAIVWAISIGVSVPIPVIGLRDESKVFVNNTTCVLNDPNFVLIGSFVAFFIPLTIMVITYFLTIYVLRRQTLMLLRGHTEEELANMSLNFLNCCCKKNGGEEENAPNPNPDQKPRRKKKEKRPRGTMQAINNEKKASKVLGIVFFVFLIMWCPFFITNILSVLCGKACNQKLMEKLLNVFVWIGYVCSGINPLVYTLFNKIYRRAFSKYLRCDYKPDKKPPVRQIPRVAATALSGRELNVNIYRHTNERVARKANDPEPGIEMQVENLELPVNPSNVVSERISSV
The experiment is described as follows: Penile erection (rats). To be noted: 0.75 h, within 45 minutes after administration. Format: in vivo. The procedure:
It has been shown that penile erection is dependent on stimulation of the 5HT2C receptor (see Berendsen & Broekkamp, Eur. J. Pharmacol. 135, 179-184 (1987)).
The number of penile erections was determined within 45 minutes after administration of the test substance. The ED50 is the dose which causes 50% of these erections.

Where [4] appears, read: 5HT1A, radioligand [3H]-5-HT (1 nM), pki = -log10 Ki, read-out: pKi, test method a (converted).
Setting [5] is: po, p.o., read-out: ED50 penile erection, p.o.
[6] abbreviates: sc, s.c., read-out: ED50 penile erection, s.c.

Where a name gives a salt, the structure may show the parent alone. Read-outs that look alike come from different tables or passages of the source.

17 compounds from patent publication US5561150A, “Tricyclic pyrazole derivatives” (Hoffman-La Roche Inc., priority 1994, dated 1996) can be followed below.

5HT2A receptor, sequence (P28223 whole entry): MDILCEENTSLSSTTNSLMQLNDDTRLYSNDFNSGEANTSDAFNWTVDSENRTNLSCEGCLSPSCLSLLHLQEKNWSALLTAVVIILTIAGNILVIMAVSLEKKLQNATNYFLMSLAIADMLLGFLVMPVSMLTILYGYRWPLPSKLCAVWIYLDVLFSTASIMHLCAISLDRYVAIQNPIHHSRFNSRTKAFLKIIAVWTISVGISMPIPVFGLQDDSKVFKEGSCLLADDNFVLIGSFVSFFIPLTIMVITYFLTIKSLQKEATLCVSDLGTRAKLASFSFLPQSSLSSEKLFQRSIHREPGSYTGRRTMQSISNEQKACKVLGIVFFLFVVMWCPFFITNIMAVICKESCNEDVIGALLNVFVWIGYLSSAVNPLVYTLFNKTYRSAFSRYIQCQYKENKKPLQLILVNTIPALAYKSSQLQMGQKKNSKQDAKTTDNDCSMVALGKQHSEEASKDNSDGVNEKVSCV

Consider `COc1ccc2c(c1)-c1c(cnn1CC(C)N)C2(C)C` (racemic) [Example 6, (RS)-2-(7-methoxy-4,4-dimethyl-1,4-dihydroindeno[2,1-c]pyrazol-1-yl)-1-methyl-ethylamine fumarate (1:1)], for which the Ki was 1820 nM in experiment [1] and 49 nM at 5HT2A receptor. Moreover, the “pKi, test method b” value on 5HT2C receptor [2] is 8.33.

As for `CC(N)Cn1ncc2c1-c1cc(F)ccc1C2(C)C` (racemic) [Example 12, (RS)-2-(7-fluoro-4,4-dimethyl-1,4-dihydroindeno[2,1-c]pyrazol-1-yl)-1-methyl-ethylamine fumarate (1:1)], the Ki in experiment [1] is 1230 nM; at 5HT2A receptor, 141 nM. Moreover, the “pKi, test method b” value at 5HT2C receptor [2] was determined as 7.72.

For the compound `Cc1ccc2c(c1)-c1c(cnn1C[C@H](C)N)C2(C)C` [Example 3, (S)-2-(4,4,7-trimethyl-1,4-dihydro-indeno[2,1-c]pyrazol-1-yl)-1-methyl-ethylamine fumarate (1:1)], the Ki in experiment [1] (setting [4]) was 4170 nM; at 5HT2A receptor, 229 nM. In addition, the “pKi, test method b” value at 5HT2C receptor [2] is 8.32.

In the case of `CCOc1ccc2c(c1)-c1c(cnn1C[C@H](C)N)C2` [Example 18, (S)-2-(7-ethoxy-1,4-dihydro-indeno[2,1-c]pyrazol-1-yl)-1-methyl-ethylaminefumarate (1:1)], the ED50 was found to be 2.3 mg/kg on 5HT2C receptor [3] (setting [5]) and 0.7 mg/kg at 5HT2C receptor [3] (setting [6]). Besides, the Ki in experiment [1] (setting [4]) was 1000 nM; at 5HT2A receptor, 49 nM. The “pKi, test method b” value at 5HT2C receptor [2] is 8.48.

On to `COc1ccc2c(c1)-c1c(cnn1C[C@@H](C)N)C2` [Example 7, (R)-2-(7-methoxy-1,4-dihydro-indeno[2,1-c]pyrazol-1-yl)-1-methyl-ethylamine fumarate (1:1)], for which the Ki in experiment [1] was 2450 nM; on 5HT2A receptor, 363 nM. Moreover, on 5HT2C receptor [2], the “pKi, test method b” value was found to be 7.73.

With `COc1ccc2c(c1)Cc1cnn(CC(C)N)c1-2` (racemic) [Example 14, (RS)-2-(6-methoxy-1,4-dihydroindeno[2,1-c]pyrazol-1-yl)-1-methyl-ethylamine fumarate (1:1)], the Ki in experiment [1] (setting [4]) was 2340 nM; at 5HT2A receptor, 1550 nM. Moreover, the “pKi, test method b” value on 5HT2C receptor [2] was 6.70.

As to `Cc1ccc2c(c1)-c1c(cnn1CC(C)N)C2` (racemic) [Example 10, (RS)-2-(7-methyl-1,4-dihydroindeno[2,1-c]pyrazol-1-yl)-1-methyl-ethylamine fumarate (1:1)], the Ki in experiment [1] (setting [4]) is 1660 nM; at 5HT2A receptor, 50.1 nM. Also, at 5HT2C receptor [2], the “pKi, test method b” value amounted to 8.32.

As for `COc1ccc2c(c1)-c1c(cnn1C[C@H](C)N)C2` [Example 2, (S)-2-(7-methoxy-1,4-dihydro-indeno[2,1-c]pyrazol-1-yl)-1-methyl-ethylamine fumarate (1:1)], the values for the median effective dose (ED50) on 5HT2C receptor [3] (setting [5]) and on 5HT2C receptor [3] (setting [6]) were 1.4 mg/kg and 0.32 mg/kg, respectively. Further, the Ki is 339 nM in experiment [1] and 49 nM on 5HT2A receptor. The “pKi, test method b” value at 5HT2C receptor [2] is 8.57.

As to `COc1ccc2c(c1)-c1c(cnn1CC(C)N)C2` (racemic) [Example 1, (RS)-2-(7-methoxy-1,4-dihydro-indeno[2,1-c]pyrazol-1-yl)-1-methyl-ethylamine fumarate (1:1)], the ED50 on 5HT2C receptor [3] (setting [5]) came to 3.2 mg/kg; on 5HT2C receptor [3] (setting [6]), 0.32 mg/kg. Further, the Ki in experiment [1] was 355 nM; on 5HT2A receptor, 93.3 nM. The “pKi, test method b” value at 5HT2C receptor [2] was found to be 8.26.

On to `COc1ccc2c(c1)-c1c(cnn1C[C@H](C)N)C2(C)C` [Example 4, (S)-2-(7-methoxy-4,4-dimethyl-1,4-dihydroindeno[2,1-c]pyrazol-1-yl)-1-methyl-ethylamine fumarate (1:1)], for which the Ki in experiment [1] is 2630 nM; on 5HT2A receptor it was 37.2 nM. The “pKi, test method b” value on 5HT2C receptor [2] stood at 8.65.

Regarding `CCOc1ccc2c(c1)-c1c(cnn1C[C@@H](C)N)C2` [Example 17, (R)-2-(7-ethoxy-1,4-dihydro-indeno[2,1-c]pyrazol-1-yl)-1-methyl-ethylaminefumarate (1:1)], the Ki at 5HT2A receptor was 209 nM. Also, at 5HT2C receptor [2], the “pKi, test method b” value was found to be 7.40.

Consider `COc1ccc2ccc3cnn(CC(C)N)c3c2c1` (racemic) [Example 16, (RS)-2-(8-methoxy-1H-benz[g]indazol-1-yl)-1-methyl-ethylamine fumarate (1:0.5)], for which the Ki in experiment [1] is 200 nM; on 5HT2A receptor it was 25.1 nM. In addition, the “pKi, test method b” value at 5HT2C receptor [2] is listed as 8.94.

Regarding `Cc1ccc2c(c1)-c1c(cnn1CC(C)N)C2(C)C` (racemic) [Example 5, (RS)-2-(4,4,7-trimethyl-1,4-dihydroindeno[2,1-c]pyrazol-1-yl)-1-methyl-ethylamine fumarate (1:1)], the Ki in experiment [1] (setting [4]) was 631 nM; at 5HT2A receptor, 191 nM. The “pKi, test method b” value on 5HT2C receptor [2] was determined as 7.90.

On to `COc1ccc2c(c1)-c1c(cnn1CC(C)N)CC2.O=C(O)/C=C/C(=O)O` (racemic) [Example 15, (RS)-2-(4,5-dihydro-8-methoxy-1H-benz[g]indazol-1-yl)-1-methyl-ethylamine fumarate (1:1)], for which the values for the Ki (in experiment [1]; on 5HT2A receptor) were 1290 nM and 81.3 nM, respectively. The “pKi, test method b” value at 5HT2C receptor [2] is 8.28.

For `COc1ccc2c(c1)-c1c(c(C)nn1CC(C)N)C2` (racemic) [Example 8], the Ki in experiment [1] was 6760 nM; at 5HT2A receptor it was 832 nM. In addition, the “pKi, test method b” value at 5HT2C receptor [2] was found to be 7.13.

On to `CCOc1ccc2c(c1)-c1c(cnn1CC(C)N)C2` (racemic) [Example 13, (RS)-2-(7-ethoxy-1,4-dihydroindeno[2,1-c]pyrazol-1-yl)-1-methyl-ethylaminefumarate (1:1)], for which the results for the 50% effective dose (ED50) at 5HT2C receptor [3] (setting [5]) and on 5HT2C receptor [3] (setting [6]) were 2.7 mg/kg and 0.5 mg/kg, respectively. Further, the Ki was 1200 nM in experiment [1] (setting [4]) and 49 nM at 5HT2A receptor. The “pKi, test method b” value at 5HT2C receptor [2] is 8.38.

Turning to `CC(N)Cn1ncc2c1-c1cc(F)ccc1C2` (racemic) [Example 11, (RS)-2-(7-fluoro-1,4-dihydroindeno[2,1-c]pyrazol-1-yl)-1-methyl-ethylaminefumarate (1:1)], the Ki is 1780 nM in experiment [1] (setting [4]) and 263 nM on 5HT2A receptor. Also, the “pKi, test method b” value at 5HT2C receptor [2] is 7.51.

As usually defined, the ED50 is the midpoint of the dose-response relation.
